This note sets out measurements from US5574008A, “Biologically active fragments of glucagon-like insulinotropic peptide” (Eli Lilly and Company, priority 1994, dated 1996).

The target of the test is T1, rat GLP-1 receptor (Rattus norvegicus, UniProt P32301).
T1 construct: expressed in transfected cells; host or cells: Dihydrofolate reductase-deficient Chinese hamster ovary cell line DXB-11; membrane preparation
T1 sequence (P32301 22-463): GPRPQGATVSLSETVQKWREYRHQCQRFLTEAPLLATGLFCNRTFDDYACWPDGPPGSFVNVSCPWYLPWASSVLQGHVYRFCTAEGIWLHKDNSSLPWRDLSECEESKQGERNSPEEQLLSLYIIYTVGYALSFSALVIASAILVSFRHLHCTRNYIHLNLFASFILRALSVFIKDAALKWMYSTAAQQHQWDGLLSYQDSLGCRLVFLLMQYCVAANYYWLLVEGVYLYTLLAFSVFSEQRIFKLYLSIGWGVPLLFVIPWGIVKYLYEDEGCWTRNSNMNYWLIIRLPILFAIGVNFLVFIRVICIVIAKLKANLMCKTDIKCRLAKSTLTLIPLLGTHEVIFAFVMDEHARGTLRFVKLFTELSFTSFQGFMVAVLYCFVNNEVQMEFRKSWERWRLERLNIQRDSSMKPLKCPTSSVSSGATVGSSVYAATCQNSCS
In words: In vitro GLP-1 agonist cAMP assay (particle concentration fluorescence immunoassay, membrane preparation). The format is biochemical. The procedure: Cells were grown to confluency in 10% dialyzed fetal bovine serum/high glucose Dulbecco's Modified Eagle Medium with 0.1% proline at 37° C. The cell were then harvested, and membranes were prepared by first washing the cells with phosphate buffered saline (PBS), then twice with cold buffer (25 mM 4-(2-hydroxyethyl)-1 piperazineethanesulfonic acid (HEPES), 2 mM MgCl2, 1 mM ethylenedinitrilo-tetraacetic acid (EDTA), 20 μg/ml Leupeptin, 1 mM phenylmethyl sulfonyl fluoride (PMSF), 2 μg/ml Aprotinin, 50 μg/ml Trypsin Inhibitor, pH 8.0). The washed cells were resuspended in cold buffer, lysed in a glass Teflon homogenizer and then centrifuged at 35,300 g for 30 minutes at 4° C. The supernatant was removed and the pellet resuspended in cold buffer and homogenized. Two hundred μl aliquots (3.2 mg/ml) were stored at -80° C.
Briefly, 10 μl of membrane prep (80 μg/ml) was preincubated with 10 μl of test compound or reference compound in buffer (25 mM HEPES, 0.2% (w/v) bovine serum albumin (BSA), pH 7.6) at 32° C. for 10 minutes. Five μl of reaction buffer (25 mM HEPES, 0.2% (w/v) BSA, 13 mM (CH3 C00)2 Mg.4H2 O, 4 mM adenosine-5'-triphosphate (ATP), 40 nM guanosine 5'-O-3'thiotriphosphate (GTP-∂-s), 25 mM creatine phosphate, creatine kinase 250 U/ml, 1 mM 3-Isobutyl-1-methyl xanthine (IBMX), pH 7.6) was added and incubated for an additional 30 minutes. Incubations were stopped by adding 25 μl 10 mM EDTA and fluorescent tracer (cAMP-β phycoerythrin conjugate).
This assay, a particle concentration fluorescence immunoassay, was based on the competition between unlabelled cAMP and a fixed amount of fluorescent labelled cAMP for a limited number of binding sites on a cAMP specific antibody. By keeping the quantity of fluorescent ligand and antibody fixed, the amount of fluorescent ligand bound by the antibody was inversely proportional to the concentration of unlabelled cAMP. The antibody-bound cAMP was then captured by anti-rabbit IgG coated assay particles. Separation of the bound antibody fraction was achieved by filtration on Fluoricon®-Ca Assay Plates. After measuring the fluorescence in the pellet, the amount of bound fluorescent cAMP was calculated. The rate of cAMP production (pmol/min/mg) was then determined by interpolation from a standard curve.

As to `CC[C@H](C)[C@H](NC(=O)[C@H](Cc1ccccc1)NC(=O)[C@H](CCC(=O)O)NC(=O)[C@H](CCCCN)NC(=O)[C@H](C)NC(=O)[C@H](C)NC(=O)[C@H](CCC(N)=O)NC(=O)CNC(=O)[C@H](CCC(=O)O)NC(=O)[C@H](CC(C)C)NC(=O)[C@H](Cc1ccc(O)cc1)NC(=O)[C@H](CO)NC(=O)[C@H](CO)NC(=O)[C@@H](NC(=O)[C@H](CC(=O)O)NC(=O)[C@H](CO)NC(=O)[C@@H](NC(=O)[C@H](Cc1ccccc1)NC(=O)[C@@H](NC(=O)CNC(=O)[C@@H](N)CCC(=O)O)[C@@H](C)O)[C@@H](C)O)C(C)C)C(=O)N[C@@H](C)C(=O)N[C@@H](Cc1c[nH]c2ccccc12)C(=O)N[C@@H](CC(C)C)C(=O)N[C@H](C(=O)N[C@@H](CCCCN)C(=O)NCC(=O)N[C@@H](CCCNC(=N)N)C(N)=O)C(C)C` [GLP-1(9-36)NH2], the cAMP produced by setting is: (Dose 0.005 nM) 21.165 pmol/min/mg; (Dose 0.01 nM) 21.743 pmol/min/mg; (Dose 0.02 nM) 20.678 pmol/min/mg; (Dose 0.05 nM) 22.602 pmol/min/mg; (Dose 0.1 nM) 22.033 pmol/min/mg; (Dose 0.4 nM) 21.460 pmol/min/mg. For the same compound, the cAMP produced turned out to be 21.588 pmol/min/mg (Dose 1 nM), 21.046 pmol/min/mg (Dose 4 nM), 22.320 pmol/min/mg (Dose 10 nM) and 19.156 pmol/min/mg (Dose 100 nM).
